Results: US20080221045A1, “Hepatic Function-Improving Agent” (Kabushiki Kaisha Hayashibara Seibutsu Kagaku Kenkyujo, priority 2004, published 2008)

Assays:
hepatic functions = test: Administration test of α-glucosyl-hesperidin on hamsters (cholesterol-supplemented feed), serum GOT and GPT; format: in vivo, golden hamsters; conditions: for Serum GOT / Serum GPT: 0.25 mmole/kg/day by stomach sonde, 5 weeks, last 3 weeks feed with 1% cholesterol, average ± SD; for Serum GOT: distilled water control 171 ± 46, before 46 ± 8; for Serum GPT: distilled water control 418 ± 106, before 81 ± 18; for serum levels of GOT and GPT compared with the distilled water group (control 1): 0.25 mmole/kg/day
Protocol: The animal experiment using hamsters was performed to investigate the influences of the intake of α-glucosyl-hesperidin on hepatic functions.
A group of five golden hamsters of five weeks old was fed on liberal amount of “NMF Lab Animal Diet Powder” (produced by Oriental Yeast Co., Ltd.) with the administration of “αG-HESPERIDIN PS®” (a powdery α-glucosyl-hesperidin containing 82.8% of α-glucosyl-hesperidin, commercialized by Hayashibara Shoji, Inc.) dissolved in distilled water. α-Glucosyl-hesperidin was administered to the hamsters through a stomach sonde at a dose of 0.25 mmole (193 mg)/kg/body weight every day. After two-week administrations of α-glucosyl-hesperidin, the hamsters were fed for additional three weeks in the same way as described above except that their feed was supplemented with 1% by weight of cholesterol. At four hours after the final administrations, the hamsters were anesthetized and under went laparotomy, and their large-venous blood samples were taken. After the separation of the hamsters' serums by a conventional method, the levels of GOT and GPT were measured. As the control 1, another group was fed and its blood samples were taken in the same way except that distilled water instead of α-glucosyl-hesperidin was administered to the hamsters. As the control 2, a third group was fed and their blood samples were taken in the same way except that hesperidin (a regent grade specimen, commercialized by Wako Pure Chemical Industries, Ltd.) instead of α-glucosyl-hesperidin suspended in distilled water was administered to the hamsters at a dose of 0.25 mmole (153 mg)/kg/body weight. The other group was fed on liberal amount of “NMF Lab Animal Diet Powder” with no administration of the test articles and their blood samples were taken in the same way as describe above, and the serum levels of GOT and GPT were measured to obtain the data before the administrations.

[1] = mammals including humans with an elevated TG level; Yamada et al. 2003, Miwa et al. 2004; cited from earlier work

Which “Serum GOT” value (hepatic functions) does the source give for `COc1ccc(C2CC(=O)c3c(O)cc(O[C@@H]4OC(CO[C@@H]5OC(C)[C@H](O)C(O)C5O)[C@@H](COC[C@H]5OC(CO)[C@@H](O)C(O)C5O)C(O)C4O)cc3O2)cc1O` (stereo partly drawn) [α-Glucosyl-hesperidin, α-glucosyl-hesperidin] here?
The value was 66 ± 44 IU/L.

What about the “Serum GPT” value (hepatic functions) of the same compound?
Its value is 226 ± 74 IU/L.

And the “serum levels of GOT and GPT compared with the distilled water group (control 1)” value (hepatic functions; hamsters)?
The value was “kept lower”.

And the “effect for keeping hepatic-function indexes at a lower level, compared with hesperidin” value (hepatic functions; hamsters, equal molar dose 0.25 mmole/kg/day)?
Its value is “greater effect than that of hesperidin”.

What about the “effect on blood triglyceride (TG) level” value [1] of the same compound?
The value was “marked effect of reducing blood triglyceride”.

Which “Serum GOT” value (hepatic functions) does the source give for `COc1ccc([C@@H]2CC(=O)c3c(O)cc(O[C@@H]4O[C@H](CO[C@@H]5O[C@@H](C)[C@H](O)[C@@H](O)[C@H]5O)[C@@H](O)[C@H](O)[C@H]4O)cc3O2)cc1O` [Hesperidin, hesperidin, reference compound] here?
The value was 101 ± 30 IU/L.

What about the “Serum GPT” value (hepatic functions) of the same compound?
Its value is 298 ± 76 IU/L.

What about the “serum levels of GOT and GPT compared with the distilled water group (control 1)” value (hepatic functions; hamsters) of the same compound?
The value was “kept lower”.
